In PMC4354951 (European journal of medicinal chemistry, 2008):
“And” between values parts separate entries of the source, which are not always exact repeats. Equal entries are not always repeated. “Also recorded” adds a separate entry of the source.

Tests used:
[1] = target: T1, human NTPDase3 (Homo sapiens, UniProt O75355); experiment: Hydrolysis by NTPDase3; format: biochemical; details: 100 μM substrate; relative to ATP hydrolysis (100%)
T1 sequence (O75355 1-529): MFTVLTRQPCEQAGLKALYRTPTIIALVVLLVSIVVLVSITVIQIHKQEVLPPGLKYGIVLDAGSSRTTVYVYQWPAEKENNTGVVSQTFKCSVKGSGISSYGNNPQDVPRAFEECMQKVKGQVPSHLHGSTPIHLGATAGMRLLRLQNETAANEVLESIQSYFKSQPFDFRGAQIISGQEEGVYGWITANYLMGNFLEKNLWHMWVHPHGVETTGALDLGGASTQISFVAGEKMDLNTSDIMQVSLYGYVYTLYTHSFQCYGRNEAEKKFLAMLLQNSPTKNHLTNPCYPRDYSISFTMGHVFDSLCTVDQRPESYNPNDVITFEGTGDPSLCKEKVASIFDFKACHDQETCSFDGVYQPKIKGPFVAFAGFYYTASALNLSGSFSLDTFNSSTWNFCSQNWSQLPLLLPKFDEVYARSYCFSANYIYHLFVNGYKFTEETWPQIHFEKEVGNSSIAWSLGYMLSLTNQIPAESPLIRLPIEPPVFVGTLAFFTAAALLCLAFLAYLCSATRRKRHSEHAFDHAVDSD

[2] = target: T2, human NPP3 (Homo sapiens, UniProt O14638); experiment: Hydrolysis by NPP3; format: biochemical; details: 100 μM substrate; relative to pnp-TMP hydrolysis (100%)
T2 sequence (O14638 1-875): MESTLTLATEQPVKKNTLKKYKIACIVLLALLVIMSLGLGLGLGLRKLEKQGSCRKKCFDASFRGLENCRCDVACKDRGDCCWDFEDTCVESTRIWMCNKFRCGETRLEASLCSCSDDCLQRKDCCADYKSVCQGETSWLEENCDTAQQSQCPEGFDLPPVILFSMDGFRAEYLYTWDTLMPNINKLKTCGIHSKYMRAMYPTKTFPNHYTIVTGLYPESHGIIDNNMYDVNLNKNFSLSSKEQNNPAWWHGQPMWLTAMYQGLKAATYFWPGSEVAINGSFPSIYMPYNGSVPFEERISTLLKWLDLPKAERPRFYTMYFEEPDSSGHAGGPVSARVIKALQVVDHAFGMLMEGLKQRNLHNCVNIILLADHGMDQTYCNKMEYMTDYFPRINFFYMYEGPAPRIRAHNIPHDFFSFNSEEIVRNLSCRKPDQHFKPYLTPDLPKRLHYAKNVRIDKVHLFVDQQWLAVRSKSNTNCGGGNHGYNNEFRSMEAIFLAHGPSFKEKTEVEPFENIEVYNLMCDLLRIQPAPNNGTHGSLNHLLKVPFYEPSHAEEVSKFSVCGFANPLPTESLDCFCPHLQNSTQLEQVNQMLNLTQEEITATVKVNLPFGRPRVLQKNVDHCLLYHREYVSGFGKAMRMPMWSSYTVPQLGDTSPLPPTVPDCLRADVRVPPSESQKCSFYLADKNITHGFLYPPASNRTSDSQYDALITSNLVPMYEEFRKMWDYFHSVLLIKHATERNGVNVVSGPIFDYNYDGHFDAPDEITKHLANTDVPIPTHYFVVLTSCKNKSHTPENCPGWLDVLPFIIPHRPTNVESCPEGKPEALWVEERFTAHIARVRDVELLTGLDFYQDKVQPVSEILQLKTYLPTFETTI

[3] = target: human P2Y2 receptor (Homo sapiens, UniProt P41231); experiment: Increase in [Ca2+]i in 1321N1 astrocytoma cells expressing P2Y2 receptor; format: cell-based; details: 1321N1 cell transfectants; for EC50: read-out: EC50 of analogue-induced increase in [Ca2+]i, P2Y2
Sequence of human P2Y2 receptor (P41231 whole entry): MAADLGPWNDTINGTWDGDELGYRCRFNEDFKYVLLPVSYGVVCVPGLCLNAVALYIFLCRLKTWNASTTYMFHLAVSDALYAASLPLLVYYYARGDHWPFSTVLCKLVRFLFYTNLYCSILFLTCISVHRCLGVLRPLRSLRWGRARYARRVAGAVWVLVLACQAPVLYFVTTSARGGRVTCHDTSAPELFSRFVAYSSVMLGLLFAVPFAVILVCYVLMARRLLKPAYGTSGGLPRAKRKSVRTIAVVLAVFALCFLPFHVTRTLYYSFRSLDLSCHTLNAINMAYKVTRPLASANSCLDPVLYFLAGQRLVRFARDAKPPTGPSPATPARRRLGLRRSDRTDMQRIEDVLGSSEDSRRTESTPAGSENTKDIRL

[4] = target: human P2Y4 receptor (Homo sapiens, UniProt P51582); experiment: Increase in [Ca2+]i in 1321N1 astrocytoma cells expressing P2Y4 receptor; format: cell-based; details: 1321N1 cell transfectants; for EC50: read-out: EC50 of analogue-induced increase in [Ca2+]i, P2Y4
Sequence of human P2Y4 receptor (P51582 whole entry): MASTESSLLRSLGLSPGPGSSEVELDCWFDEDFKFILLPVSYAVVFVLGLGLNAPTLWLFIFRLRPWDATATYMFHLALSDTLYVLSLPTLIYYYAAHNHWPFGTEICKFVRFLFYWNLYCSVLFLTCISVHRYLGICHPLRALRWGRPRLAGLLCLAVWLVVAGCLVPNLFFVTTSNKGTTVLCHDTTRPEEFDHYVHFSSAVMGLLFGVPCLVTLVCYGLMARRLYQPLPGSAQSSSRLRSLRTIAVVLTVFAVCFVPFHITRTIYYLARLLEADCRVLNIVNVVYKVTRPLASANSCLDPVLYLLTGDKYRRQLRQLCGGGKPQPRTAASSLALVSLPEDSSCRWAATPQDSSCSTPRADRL

[5] = Stability in human blood serum, Method B; details: Method B; 37 °C, up to 144 h
[6] = Chemical hydrolysis under gastric juice-like conditions; format: physicochemical

Compound	Relative activity of NTPDase3 [1]	Relative activity of NPP3 [2]	agonist activity at P2Y2R [3]	EC50 [3]	agonist activity at P2Y4R [4]	EC50 [4]	resistance to enzymatic hydrolysis in human blood serum [5]	fraction degraded ([6]; 0.2 M HCl/KCl pH 1.4, 37 °C, after 19 h)	t1/2 of acidic hydrolysis ([6]; KCl/HCl buffer pH 1.4, 37 °C, 31P NMR (2) or HPLC-MS (3B, 4B))
[BH3-][P+](O)(OC[C@H]1O[C@@H](n2cnc3c(N)ncnc32)[C@H](O)[C@@H]1O)OP(=O)(O)CP(=O)(O)O (single isomer, unassigned) [3A, Adenosine-5′-O-(α-boranotriphosphate)-β,γ-CH2]	0%	0%	insignificant activities	> 100 µM	insignificant activities	> 100 µM			
[BH3-][P+](O)(OC[C@H]1O[C@@H](n2cnc3c(N)nc(SC)nc32)[C@H](O)[C@@H]1O)OP(=O)(O)CP(=O)(O)O (single isomer, unassigned) [4A, 2-MeS–adenosine-5′-O-(α-boranotriphosphate)-β,γ-CH2]	2.0 ± 0.26%	10% and 9.9 ± 0.5%	insignificant activities; also recorded: inactivity	> 100 µM	insignificant activities	> 100 µM	completely resistant to enzymatic hydrolysis for at least 6 days		
[BH3-][P+](O)(OC[C@H]1O[C@@H](n2cnc3c(N)ncnc32)[C@H](O)[C@@H]1O)OP(=O)(O)CP(=O)(O)O (single isomer, unassigned) [3B, Adenosine-5′-O-(α-boranotriphosphate)-β,γ-CH2]	6.0 ± 0.16%	3.0 ± 0.05%	insignificant activities	> 100 µM	insignificant activities	> 100 µM		50%	19 h
